Biological target: T1, human PAD4 (Homo sapiens, UniProt Q9UM07)
T1 construct: human PAD4 (NM_012387), A2P663, was PCR amplified; His-SUMO (N, cleaved yes); made in house; host or cells: E. coli BL21(DE3)
Experiment: In vitro PAD4 BAEE biochemical assay
Settings: human PAD4, BAEE substrate; 5 nM PAD4, 2 mM calcium chloride, 3 mM BAEE; geometric mean of multiple experiments
Procedure, shortened: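 Ammonia release from BAEE deimination monitored by o-phthalaldehyde amine coupling (1 h, 25 °C) after EDTA stop. Final conditions: 5 nM tag-free recombinant human PAD4 (E. coli), 2 mM CaCl2, 3 mM BAEE, pH 7.6 MOPS with DTT; 30 min compound preincubation, then 2 h reaction at 25 °C.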

T1 sequence (Q9UM07 2-663): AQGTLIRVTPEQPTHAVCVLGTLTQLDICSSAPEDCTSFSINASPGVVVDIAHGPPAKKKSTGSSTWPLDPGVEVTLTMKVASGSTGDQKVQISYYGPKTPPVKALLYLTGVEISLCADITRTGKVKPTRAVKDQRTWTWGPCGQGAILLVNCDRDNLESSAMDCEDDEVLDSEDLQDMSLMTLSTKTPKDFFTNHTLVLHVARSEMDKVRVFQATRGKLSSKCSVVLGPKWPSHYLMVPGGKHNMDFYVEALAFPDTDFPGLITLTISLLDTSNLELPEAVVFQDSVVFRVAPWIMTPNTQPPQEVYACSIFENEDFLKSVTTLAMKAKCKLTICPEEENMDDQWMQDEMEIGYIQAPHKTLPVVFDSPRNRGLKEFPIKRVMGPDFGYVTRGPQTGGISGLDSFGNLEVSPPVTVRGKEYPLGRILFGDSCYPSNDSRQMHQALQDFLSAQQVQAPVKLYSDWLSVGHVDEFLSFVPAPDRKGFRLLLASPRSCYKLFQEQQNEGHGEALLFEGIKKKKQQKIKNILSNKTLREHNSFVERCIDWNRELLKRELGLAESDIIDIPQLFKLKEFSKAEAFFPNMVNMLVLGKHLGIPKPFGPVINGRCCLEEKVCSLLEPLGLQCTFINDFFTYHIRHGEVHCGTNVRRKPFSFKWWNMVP

IC50 | SMILES
69.6 nM | COc1cc(C(=O)N2C[C@H](N)CCN2C)cc2nc(-c3cc4ccc([C@@H](C)NC(=O)C56CC(F)(C5)C6)nc4n3CC3CC3)c(C)n12 [Example 615, N—((R)-1-(2-(7-((R)-5-amino-2-methylhexahydropyridazine-1-carbonyl)-5-methoxy-3-methylimidazo[1,2-a]pyridin-2-yl)-1-(cyclopropylmethyl)-1H-pyrrolo[2,3-b]pyridin-6-yl)ethyl)-3-fluorobicyclo[1.1.1]pentane-1-carboxamide]
66 nM | COc1cc(C(=O)N2[C@H]3CC[C@@H]2[C@H](N)C3)cc2nc(-c3cc4ccc([C@@H](C)NC(=O)N5CCCC5)nc4n3CC3CC3)c(C3CC3)n12 [Example 249, ~{N}-[(1~{R})-1-[2-[7-[(1~{R},2~{R},4~{S})-2-amino-7-azabicyclo[2.2.1]heptane-7-carbonyl]-3-cyclopropyl-5-methoxyimidazo[1,2-a]pyridin-2-yl]-1-(cyclopropylmethyl)pyrrolo [2,3-b]pyridin-6-yl]ethyl] pyrrolidine-1-carboxamide]
757 nM | CCc1ccc2cc(-c3nc4cc(C(=O)N5CCC[C@@H](N)C5)cc(OC)n4c3N)n(CC3CC3)c2n1 [Example 553, [3-amino-2-[1-(cyclopropylmethyl)-6-ethylpyrrolo[2,3-b]pyridin-2-yl]-5-methoxyimidazo [1,2-a]pyridin-7-yl]-[(3~{R})-3-aminopiperidin-1-yl]methanone]
53.2 nM | COc1cc(C(=O)N2[C@H]3CC[C@@H]2[C@H](N)C3)cc2nc(-c3cc4ccc([C@@H](C)NC(=O)C56CC(C5)C6)nc4n3CC3CC3)c(C)n12 [Example 160, ~{N}-[(1~{R})-1-[2-[7-[(1~{R},2~{R},4~{S})-2-amino-7-azabicyclo[2.2.1]heptane-7-carbonyl]-5-methoxy-3-methylimidazo [1,2-a]pyridin-2-yl]-1-(cyclopropylmethyl)pyrrolo [2,3-b]pyridin-6-yl]ethyl]bicyclo[1.1.1]pentane-1-carboxamide]
2130 nM | CCC1C(N)C2CCC1N2C(=O)c1cc(OC)n2c(C)c(-c3cc4ccc(N(C(F)F)S(C)(=O)=O)nc4n3CC3CC3)nc2c1 (single isomer, unassigned) [Example 346]
56.1 nM | COc1cc(C(=O)N2[C@H]3CC[C@@H]2[C@H](N)C3)cc2nc(-c3cc4ccc([C@@H](C)NC(=O)C56CC(Cl)(C5)C6)nc4n3CC3CC3)c(C)n12 [Example 133, ~{N}-[(1~{R})-1-[2-[7-[(1~{R},2~{R},4~{S})-2-amino-7-azabicyclo[2.2.1]heptane-7-carbonyl]-5-methoxy-3-methylimidazo [1,2-a]pyridin-2-yl]-1-(cyclopropylmethyl)pyrrolo [2,3-b]pyridin-6-yl]ethyl]-3-chlorobicyclo[1.1.1]pentane-1-carboxamide]
17100 nM | CCc1ccc2cc(-c3nc4cc(C(=O)N5[C@H]6CC[C@@H]5[C@H](N)C6)cc(OC)n4c3C)n(-c3nccs3)c2n1 [Example 510, [(1~{R},2~{R},4~{S})-2-amino-7-azabicyclo [2.2.1]heptan-7-yl]-[2-[6-ethyl-1-(1,3-thiazol-2-yl)pyrrolo[2,3-b]pyridin-2-yl]-5-methoxy-3-methylimidazo[1,2-a]pyridin-7-yl]methanone]
56.3 nM | COc1cc(C(=O)N2CCC[C@@H](N)C2)cc2nc(-c3cc4ccc([C@@H](C)NC(=O)C5(CO)CC5)nc4n3CC3CC3)c(C)n12 [Example 129, ~{N}-[(1~{R})-1-[2-[7-[(3~{R})-3-aminopiperidine-1-carbonyl]-5-methoxy-3-methylimidazo [1,2-a]pyridin-2-yl]-1-(cyclopropylmethyl)pyrrolo [2,3-b]pyridin-6-yl]ethyl]-1-(hydroxymethyl) cyclopropane-1-carboxamide]
29.3 nM | COc1cc(C(=O)N2[C@H]3CC[C@@H]2[C@H](N)C3)cc2nc(-c3cc4ccc([C@@H](C)NC(=O)N5C[C@H]6OCC[C@H]65)nc4n3CC3CC3)c(C)n12 [Example 196, (1~{R},5~{R})-~{N}-[(1~{R})-1-[2-[7-[(1~{R},2~{R},4~{S})-2-amino-7-azabicyclo[2.2.1]heptane-7-carbonyl]-5-methoxy-3-methylimidazo [1,2-a]pyridin-2-yl]-1-(cyclopropylmethyl)pyrrolo [2,3-b]pyridin-6-yl]ethyl]-2-oxa-6-azabicyclo [3.2.0]heptane-6-carboxamide]
56.1 nM | COc1cc(C(=O)N2[C@H]3CC[C@@H]2[C@H](N)C3)cc2nc(-c3cc4ccc([C@@H](C)NC(=O)C5(C(F)(F)F)CCC5)nc4n3CC3CC3)c(C)n12 [Example 44, ~{N}-[(1~{R})-1-[2-[7-[(1~{R},2~{R},4~{S})-2-amino-7-azabicyclo[2.2.1]heptane-7-carbonyl]-5-methoxy-3-methylimidazo [1,2-a]pyridin-2-yl]-1-(cyclopropylmethyl)pyrrolo[2,3-b]pyridin-6-yl]ethyl]-1-(trifluoromethyl) cyclobutane-1-carboxamide]
59.1 nM | COc1cc(C(=O)N2[C@H]3CC[C@@H]2[C@H](N)C3)cc2nc(-c3cc4ccc([C@@H](C)CC(=O)N5CCCC5)nc4n3CC3CC3)c(C)n12 [Example 523, (3~{S})-3-[2-[7-[(1~{R},2~{R},4~{S})-2-amino-7-azabicyclo[2.2.1]heptane-7-carbonyl]-5-methoxy-3-methylimidazo [1,2-a]pyridin-2-yl]-1-(cyclopropylmethyl)pyrrolo[2,3-b]pyridin-6-yl]-1-pyrrolidin-1-ylbutan-1-one]
143 nM | COc1cc(C(=O)N2[C@H]3CC[C@@H]2[C@H](N)C3)cc2nc(-c3cc4ccc([C@@H](C)NC(=O)C5(F)CC5)nc4n3CC3CC3)c(C)n12 [Example 136, ~{N}-[(1~{R})-1-[2-[7-[(1~{R},2~{R},4~{S})-2-amino-7-azabicyclo[2.2.1]heptane-7-carbonyl]-5-methoxy-3-methylimidazo [1,2-a]pyridin-2-yl]-1-(cyclopropylmethyl)pyrrolo [2,3-b]pyridin-6-yl]ethyl]-1-fluorocyclopropane-1-carboxamide]
159 nM | CC[C@](C)(O)c1ccc2cc(-c3nc4cc(C(=O)N5[C@H]6CC[C@@H]5[C@H](N)C6)cc(OC)n4c3C)n(CC3CC3)c2n1 [Example 565, [(1~{R},2~{R},4~{S})-2-amino-7-azabicyclo [2.2.1]heptan-7-yl]-[2-[1-(cyclopropylmethyl)-6-[(2~{S})-2-hydroxybutan-2-yl]pyrrolo[2,3-b]pyridin-2-yl]-5-methoxy-3-methylimidazo[1,2-a]pyridin-7-yl]methanone]
1850 nM | COc1cc(C(=O)N2[C@H]3CC[C@@H]2[C@H](N)C3)cc2nc(-c3cc4ccc(-c5ccccc5C)nc4n3CC3CC3)c(C)n12 [Example 550, [(1~{R},2~{R},4~{S})-2-amino-7-azabicyclo [2.2.1]heptan-7-yl]-[2-[1-(cyclopropylmethyl)-6-(2-methylphenyl)pyrrolo [2,3-b]pyridin-2-yl]-5-methoxy-3-methylimidazo [1,2-a]pyridin-7-yl]methanone]
49.6 nM | COc1cc(C(=O)N2[C@H]3CC[C@@H]2[C@H](N)C3)cc2nc(-c3cc4ccc([C@@H](C)NC(=O)C5CC6(CCC6)C5)nc4n3CC3CC3)c(C)n12 [Example 43, ~{N}-[(1~{R})-1-[2-[7-[(1~{R},2~{R},4~{S})-2-amino-7-azabicyclo[2.2.1]heptane-7-carbonyl]-5-methoxy-3-methylimidazo [1,2-a]pyridin-2-yl]-1-(cyclopropylmethyl)pyrrolo[2,3-b]pyridin-6-yl]ethyl]spiro[3.3]heptane-2-carboxamide]
40.6 nM | COc1cc(C(=O)N2[C@H]3CC[C@@H]2[C@H](N)C3)cc2nc(-c3cc4ccc([C@@H](C)NC(=O)c5cnn(C6CC6)c5)nc4n3CC3CC3)c(C)n12 [Example 106, ~{N}-[(1~{R})-1-[2-[7-[(1~{R},2~{R},4~{S})-2-amino-7-azabicyclo [2.2.1]heptane-7-carbonyl]-5-methoxy-3-methylimidazo [1,2-a]pyridin-2-yl]-1-(cyclopropylmethyl)pyrrolo [2,3-b]pyridin-6-yl]ethyl]-1-cyclopropylpyrazole-4-carboxamide]
140 nM | COc1cc(C(=O)N2C[C@H](N)[C@@H]3CC[C@H]2C3)cc2nc(-c3cc4ccc([C@@H](C)NC(=O)C56CC(C#N)(C5)C6)nc4n3CC3CC3)c(C3CC3)n12 [Example 632, N-((R)-1-(2-(7-((1S,4R,5R)-4-amino-2-azabicyclo[3.2.1]octane-2-carbonyl)-3-cyclopropyl-5-methoxyimidazo[1,2-a]pyridin-2-yl)-1-(cyclopropylmethyl)-1H-pyrrolo[2,3-b]pyridin-6-yl)ethyl)-3-cyanobicyclo [1.1.1]pentane-1-carboxamide]
827 nM | CCc1ccc2cc(-c3nc4cc(C(=O)N5[C@H]6CC[C@@H]5[C@H](N)C6)cc(OC)n4c3C)n(C[C@@H]3C[C@@H]3C(F)(F)F)c2n1 [Example 501]
447 nM | COc1cc(C(=O)N2CC[C@H]3OCCN[C@H]3C2)cc2nc(-c3cc4ccc(N(C(F)F)S(C)(=O)=O)nc4n3CC3CC3)c(C)n12 [Example 383, ~{N}-[2-[7-[(4~{a}~{S},8~{a}~{R})-2,3,4,4~{a},5,7,8,8~{a}-octahydropyrido[4,3-b][1,4]oxazine-6-carbonyl]-5-methoxy-3-methylimidazo[1,2-a]pyridin-2-yl]-1-(cyclopropylmethyl)pyrrolo[2,3-b]pyridin-6-yl]-~{N}-(difluoromethyl) methanesulfonamide]
58.6 nM | CNC(=O)CC(C)(C)c1ccc2cc(-c3nc4cc(C(=O)N5[C@H]6CC[C@@H]5[C@H](N)C6)cc(OC)n4c3C)n(CC3CC3)c2n1 [Example 539, 3-[2-[7-[(1~{R},2~{R}, 4~{S})-2-amino-7-azabicyclo[2.2.1]heptane-7-carbonyl]-5-methoxy-3-methylimidazo[1,2-a]pyridin-2-yl]-1-(cyclopropylmethyl)pyrrolo[2,3-b]pyridin-6-yl]-~{N},3-dimethylbutanamide]
